Source: US8435939B2, “Polypeptide anti-HIV agent containing the same” (priority 2000, dated 2013)
Read-outs that look alike come from different tables or passages of the source. Where a SMILES comes first, the peptide text is derived from it. Bridges are numbered along the chain shown (N, C = ends). [ ]: non-standard residue; d: D form. 2Nal = N[C@@H](Cc1ccc2ccccc2c1)C(=O)O; Cit = NC(=O)NCCC[C@H](N)C(=O)O

Legend:
Type in all cases: cell-based
HIV-1 (IIIB) strain = assay: Anti-HIV activity: inhibition of MT-4 cell death by HIV infection (MTT method); conditions: MT-4 CD4+ T cells infected by HIV-1 (IIIB), 37° C., 5 days, MTT; average of at least three measurements; read-out: EC50 (concentration where MT-4 cell death by HIV infection is inhibited by 50%)
Procedure: (§1) HIV-1 (IIIB) strain obtained from MOLT/HIV-1 (IIIB) cell previously infected by HIV-1 was used. The polypeptide of the present invention was added to MT-4 CD4^+ T cells infected by HIV in various kinds of concentrations, and a number of living cells after culturing at 37° C. for 5 days was determined by using a 3′-(4,5-dimethylthiazol-2-yl)-2,5-diphenyltetrazolinium bromide (MTT) method. Anti-HIV activity is shown by a concentration (EC50 value), where MT-4 cell death by HIV infection is inhibited by 50%. Cytotoxicity of the peptide according to the present invention was shown by a 50% survival concentration (Test I: CC50 value) by culturing virus-uninfected MT-4 cells with the polypeptide according to the present invention in various concentrations, and determining a number of living cells by the MTT method. Moreover, a number of living cells of human peripheral blood mononuclear cells (monocyte) (PBMC) was determined by trypan blue dyeing method, and shown by a 50% survival concentration (Test II: CC50 value). Respective ratios of the CC50 value and the EC50 value were shown as a selective index (SI). Obtained values were summarized in Table 3 using the conventionally known polypeptides T134 and T140, and an anti-HIV compound: 3′-azido-2′,3′-dideoxythymidine (AZT) used as a medicine as a control anti-HIV agent.

[1] = Cytotoxicity Test I: virus-uninfected MT-4 cells, MTT method; conditions: virus-uninfected MT-4 cells, MTT method, read-out: CC50 (Test I), 50% survival concentration
Procedure: as §1

[2] = tested on: virus-uninfected MT-4 cells; assay: as above; conditions: selective index, MT-4 CC50 over anti-HIV EC50
Procedure: as §1

[3] = human, MT-4 cells (virus-uninfected)

SMILES	EC50 (HIV-1 (IIIB) strain)	also measured
C[C@@H]1NC(=O)[C@@H]2CCCN2C(=O)[C@@H](CCCCN)NC(=O)[C@H](CCCCN)NC(=O)[C@H](CCCNC(=N)N)NC(=O)[C@H](Cc2ccc(O)cc2)NC(=O)[C@@H](NC(=O)[C@H](Cc2ccc3ccccc3c2)NC(=O)[C@H](CCCNC(=N)N)NC(=O)[C@@H](N)CCCNC(=N)N)CSSC[C@@H](C(=O)N[C@@H](CCCNC(=N)N)C(=O)O)NC(=O)[C@H](CCCNC(N)=O)NC(=O)[C@H](CCCNC(=N)N)NC1=O [TA14009, H-Arg-Arg-Nal-Cys-Tyr-Arg-Lys-DLys-Pro-Ala-Arg-Cit-Cys-Arg-OH] (H-RR[2Nal]CYRK[dK]PAR[Cit]CR-OH; disulfide 4-13)	0.017 µM	–
N=C(N)NCCC[C@H](NC(=O)[C@@H]1CSSC[C@H](NC(=O)[C@H](Cc2ccc3ccccc3c2)NC(=O)[C@H](CCCNC(=N)N)NC(=O)[C@@H](N)CCCNC(=N)N)C(=O)N[C@@H](Cc2ccc(O)cc2)C(=O)N[C@@H](CCCNC(=N)N)C(=O)N[C@@H](CCCCN)C(=O)N[C@H](CCCCN)C(=O)N2CCC[C@H]2C(=O)N[C@@H](Cc2ccc(O)cc2)C(=O)N[C@@H](CCCNC(=N)N)C(=O)N[C@@H](CCCNC(N)=O)C(=O)N1)C(=O)O [Compound T140, H-Arg-Arg-Nal-Cys-Tyr-Arg-Lys-DLys-Pro-Tyr-Arg-Cit-Cys-Arg-OH, reference compound] (H-RR[2Nal]CYRK[dK]PYR[Cit]CR-OH; disulfide 4-13)	0.0033 µM	–
C[C@@H]1NC(=O)[C@@H](CCCCN)NC(=O)[C@H](CCCCN)NC(=O)[C@H](CCCNC(=N)N)NC(=O)[C@H](Cc2ccc(O)cc2)NC(=O)[C@@H](NC(=O)[C@H](Cc2ccc3ccccc3c2)NC(=O)[C@H](CCCNC(=N)N)NC(=O)[C@@H](N)CCCNC(=N)N)CSSC[C@@H](C(=O)N[C@@H](CCCNC(=N)N)C(=O)O)NC(=O)[C@H](CCCNC(N)=O)NC(=O)[C@H](CCCNC(=N)N)NC(=O)[C@H](Cc2ccc(O)cc2)NC1=O [TA14008, H-Arg-Arg-Nal-Cys-Tyr-Arg-Lys-DLys-Ala-Tyr-Arg-Cit-Cys-Arg-OH] (H-RR[2Nal]CYRK[dK]AYR[Cit]CR-OH; disulfide 4-13)	0.017 µM	–
C[C@@H]1NC(=O)[C@H](CCCNC(=N)N)NC(=O)[C@H](Cc2ccc(O)cc2)NC(=O)[C@@H](NC(=O)[C@H](Cc2ccc3ccccc3c2)NC(=O)[C@H](CCCNC(=N)N)NC(=O)[C@@H](N)CCCNC(=N)N)CSSC[C@@H](C(=O)N[C@@H](CCCNC(=N)N)C(=O)O)NC(=O)[C@H](CCCNC(N)=O)NC(=O)[C@H](CCCNC(=N)N)NC(=O)[C@H](Cc2ccc(O)cc2)NC(=O)[C@@H]2CCCN2C(=O)[C@@H](CCCCN)NC1=O [TA14006, H-Arg-Arg-Nal-Cys-Tyr-Arg-Ala-DLys-Pro-Tyr-Arg-Cit-Cys-Arg-OH] (H-RR[2Nal]CYRA[dK]PYR[Cit]CR-OH; disulfide 4-13)	0.047 µM	–
N=C(N)NCCC[C@H](NC(=O)[C@@H]1CSSC[C@H](NC(=O)[C@H](Cc2ccc3ccccc3c2)NC(=O)[C@H](CCCNC(=N)N)NC(=O)[C@@H](N)CCCNC(=N)N)C(=O)N[C@@H](Cc2ccc(O)cc2)C(=O)N[C@@H](CCCNC(=N)N)C(=O)N[C@@H](CCCNC(N)=O)C(=O)N[C@H](CCCCN)C(=O)N2CCC[C@H]2C(=O)N[C@@H](Cc2ccc(O)cc2)C(=O)N[C@@H](CCCNC(=N)N)C(=O)N[C@@H](CCCNC(N)=O)C(=O)N1)C(=O)O [TC14004, H-Arg-Arg-Nal-Cys-Tyr-Arg-Cit-DLys-Pro-Tyr-Arg-Cit-Cys-Arg-OH] (H-RR[2Nal]CYR[Cit][dK]PYR[Cit]CR-OH; disulfide 4-13)	0.016 µM	–
C[C@@H]1NC(=O)[C@H](Cc2ccc(O)cc2)NC(=O)[C@@H](NC(=O)[C@H](Cc2ccc3ccccc3c2)NC(=O)[C@H](CCCN=C(N)N)NC(=O)[C@@H](N)CCCN=C(N)N)CSSC[C@@H](C(=O)N[C@@H](CCCN=C(N)N)C(=O)O)NC(=O)[C@H](CCCNC(N)=O)NC(=O)[C@H](CCCN=C(N)N)NC(=O)[C@H](Cc2ccc(O)cc2)NC(=O)[C@@H]2CCCN2C(=O)[C@@H](CCCCN)NC(=O)[C@H](CCCCN)NC1=O [TA14005, H-Arg-Arg-Nal-Cys-Tyr-Ala-Lys-DLys-Pro-Tyr-Arg-Cit-Cys-Arg-OH] (H-RR[2Nal]CYAK[dK]PYR[Cit]CR-OH; disulfide 4-13)	–	CC50 [1, 3]: > 40 µM; SI: CC50 (Test I)/EC50 [2]: >4500
C[C@H]1NC(=O)[C@H](CCCCN)NC(=O)[C@H](CCCNC(=N)N)NC(=O)[C@H](Cc2ccc(O)cc2)NC(=O)[C@@H](NC(=O)[C@H](Cc2ccc3ccccc3c2)NC(=O)[C@H](CCCNC(=N)N)NC(=O)[C@@H](N)CCCNC(=N)N)CSSC[C@@H](C(=O)N[C@@H](CCCNC(=N)N)C(=O)O)NC(=O)[C@H](CCCNC(N)=O)NC(=O)[C@H](CCCNC(=N)N)NC(=O)[C@H](Cc2ccc(O)cc2)NC(=O)[C@@H]2CCCN2C1=O [TA14007, H-Arg-Arg-Nal-Cys-Tyr-Arg-Lys-DAla-Pro-Tyr-Arg-Cit-Cys-Arg-OH] (H-RR[2Nal]CYRK[dA]PYR[Cit]CR-OH; disulfide 4-13)	0.016 µM	–
C[C@@H]1NC(=O)[C@@H]2CCCN2C(=O)[C@@H](CCCCN)NC(=O)[C@H](CCCCN)NC(=O)[C@H](CCCN=C(N)N)NC(=O)[C@H](Cc2ccc(O)cc2)NC(=O)[C@@H](NC(=O)[C@H](Cc2ccc3ccccc3c2)NC(=O)[C@H](CCCN=C(N)N)NC(=O)[C@@H](N)CCCN=C(N)N)CSSC[C@@H](C(=O)N[C@@H](CCCN=C(N)N)C(=O)O)NC(=O)[C@H](CCCNC(N)=O)NC(=O)[C@H](CCCN=C(N)N)NC1=O [TA14009, H-Arg-Arg-Nal-Cys-Tyr-Arg-Lys-DLys-Pro-Ala-Arg-Cit-Cys-Arg-OH] (H-RR[2Nal]CYRK[dK]PAR[Cit]CR-OH; disulfide 4-13)	–	CC50 [1, 3]: > 80 µM; SI: CC50 (Test I)/EC50 [2]: >4500
C[C@@H]1NC(=O)[C@@H](CCCCN)NC(=O)[C@H](CCCCN)NC(=O)[C@H](CCCN=C(N)N)NC(=O)[C@H](Cc2ccc(O)cc2)NC(=O)[C@@H](NC(=O)[C@H](Cc2ccc3ccccc3c2)NC(=O)[C@H](CCCN=C(N)N)NC(=O)[C@@H](N)CCCN=C(N)N)CSSC[C@@H](C(=O)N[C@@H](CCCN=C(N)N)C(=O)O)NC(=O)[C@H](CCCNC(N)=O)NC(=O)[C@H](CCCN=C(N)N)NC(=O)[C@H](Cc2ccc(O)cc2)NC1=O [TA14008, H-Arg-Arg-Nal-Cys-Tyr-Arg-Lys-DLys-Ala-Tyr-Arg-Cit-Cys-Arg-OH] (H-RR[2Nal]CYRK[dK]AYR[Cit]CR-OH; disulfide 4-13)	–	CC50 [1]: > 80 µM; SI: CC50 (Test I)/EC50 [2]: >4700
N=C(N)NCCC[C@H](NC(=O)[C@@H]1CSSC[C@H](NC(=O)[C@H](Cc2c[nH]c3ccccc23)NC(=O)[C@H](CCCNC(=N)N)NC(=O)[C@@H](N)CCCNC(=N)N)C(=O)N[C@@H](Cc2ccc(O)cc2)C(=O)N[C@@H](CCCNC(=N)N)C(=O)N[C@@H](CCCCN)C(=O)N[C@H](CCCCN)C(=O)N2CCC[C@H]2C(=O)N[C@@H](Cc2ccc(O)cc2)C(=O)N[C@@H](CCCNC(=N)N)C(=O)N[C@@H](CCCNC(N)=O)C(=O)N1)C(=O)O [Compound T134, H-Arg-Arg-Trp-Cys-Tyr-Arg-Lys-DLys-Pro-Tyr-Arg-Cit-Cys-Arg-OH, reference compound] (H-RRWCYRK[dK]PYR[Cit]CR-OH; disulfide 4-13)	0.0083 µM	–
C[C@@H]1NC(=O)[C@H](Cc2ccc(O)cc2)NC(=O)[C@@H](NC(=O)[C@H](Cc2ccc3ccccc3c2)NC(=O)[C@H](CCCNC(=N)N)NC(=O)[C@@H](N)CCCNC(=N)N)CSSC[C@@H](C(=O)N[C@@H](CCCNC(=N)N)C(=O)O)NC(=O)[C@H](CCCNC(N)=O)NC(=O)[C@H](CCCNC(=N)N)NC(=O)[C@H](Cc2ccc(O)cc2)NC(=O)[C@@H]2CCCN2C(=O)[C@@H](CCCCN)NC(=O)[C@H](CCCCN)NC1=O [TA14005, H-Arg-Arg-Nal-Cys-Tyr-Ala-Lys-DLys-Pro-Tyr-Arg-Cit-Cys-Arg-OH] (H-RR[2Nal]CYAK[dK]PYR[Cit]CR-OH; disulfide 4-13)	0.0093 µM	–
N=C(N)NCCC[C@H](NC(=O)[C@@H]1CSSC[C@H](NC(=O)[C@H](Cc2ccc3ccccc3c2)NC(=O)[C@H](CCCNC(=N)N)NC(=O)[C@@H](N)CCCNC(=N)N)C(=O)N[C@@H](Cc2ccc(O)cc2)C(=O)N[C@@H](CCCNC(=N)N)C(=O)N[C@@H](CCCCN)C(=O)N[C@H](CCCCN)C(=O)N2CCC[C@H]2C(=O)N[C@@H](Cc2ccc(O)cc2)C(=O)N[C@@H](CCCNC(N)=O)C(=O)N[C@@H](CCCNC(N)=O)C(=O)N1)C(=O)O [TC14006, H-Arg-Arg-Nal-Cys-Tyr-Arg-Lys-DLys-Pro-Tyr-Cit-Cit-Cys-Arg-OH] (H-RR[2Nal]CYRK[dK]PY[Cit][Cit]CR-OH; disulfide 4-13)	0.015 µM	–
N=C(N)NCCC[C@H](NC(=O)[C@@H]1CSSC[C@H](NC(=O)[C@H](Cc2ccc3ccccc3c2)NC(=O)[C@H](CCCNC(=N)N)NC(=O)[C@@H](N)CCCNC(=N)N)C(=O)N[C@@H](Cc2ccc(O)cc2)C(=O)N[C@@H](CCCNC(N)=O)C(=O)N[C@@H](CCCCN)C(=O)N[C@H](CCCCN)C(=O)N2CCC[C@H]2C(=O)N[C@@H](Cc2ccc(O)cc2)C(=O)N[C@@H](CCCNC(=N)N)C(=O)N[C@@H](CCCNC(N)=O)C(=O)N1)C(=O)O [TC14003, H-Arg-Arg-Nal-Cys-Tyr-Cit-Lys-DLys-Pro-Tyr-Arg-Cit-Cys-Arg-OH] (H-RR[2Nal]CY[Cit]K[dK]PYR[Cit]CR-OH; disulfide 4-13)	0.0028 µM	–
